Results reported in patent US10287301B2 (Achillion Pharmaceuticals, Inc., priority 2015, dated 2019).

Target: Human Factor D (Homo sapiens (Human), UniProt P00746)
Test: Human Factor D Assay
Assay type: biochemical
Conditions: Human Factor D, Table 3; read-out: IC50
Method in brief: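 Factor D (from human serum) 80 nM final + cpd, 5 min RT, 50 mM Tris/1M NaCl pH 7.5; add Z-L-Lys-SBzl 100 μM and DTNB 100 μM final. IC50 by nonlinear fit of rates vs [cpd].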

Human Factor D, sequence (P00746 26-253): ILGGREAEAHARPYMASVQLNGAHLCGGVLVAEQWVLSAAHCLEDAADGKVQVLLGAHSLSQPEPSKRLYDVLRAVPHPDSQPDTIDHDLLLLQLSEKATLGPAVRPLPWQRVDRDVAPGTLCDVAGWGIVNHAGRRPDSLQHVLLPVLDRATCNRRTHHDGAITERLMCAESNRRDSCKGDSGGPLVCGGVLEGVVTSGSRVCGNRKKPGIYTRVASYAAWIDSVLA

| SMILES | IC50 |
| --- | --- |
| CC(=O)c1nn(CC(=O)N2[C@H](C(=O)Nc3cncc(C(F)(F)F)n3)C[C@@]3(C)C[C@@H]23)c2ccc(-c3cnc(C)nc3)cc12 [Compound 640, (1R,3S,5R)-2-(2-(3-acetyl-5-(2-methylpyrimidin-5-yl)-1H-indazol-1-yl)acetyl)-5-methyl-N-(6-(trifluoromethyl)pyrazin-2-yl)-2-azabicyclo[3.1.0] hexane-3-carboxamide] | < 1000 nM |
| COc1ncc(-c2ccc3c(c2)c(C(C)=O)nn3CC(=O)N2C[C@H]3C[C@H]3[C@H]2C(=O)Nc2nc(Br)ccc2C2CC2)cn1 [Compound 641, (1R,2S,5S)-3-(2-(3-Acetyl-5-(2-methoxypyrimidin-5-yl)-1H-indazol-1-yl)acetyl)-N-(6-bromo-3-cyclopropylpyridin-2-yl)-3-azabicyclo[3.1.0]hexane-2-carboxamide] | < 1000 nM |
| CC(=O)c1nn(CC(=O)N2C[C@@H](C)C[C@H]2C(=O)Nc2nc(Br)ccc2C)c2ccc(-c3cnc(C)nc3)cc12 [Compound 643, (2S,4S)-1-(2-(3-Acetyl-5-(2-methylpyrimidin-5-yl)-1H-indazol-1-yl)acetyl)-N-(6-bromo-3-methylpyridin-2-yl)-4-methylpyrrolidine-2-carboxamide] | < 1000 nM |
| CC(=O)c1nn(CC(=O)N2C[C@H](C)C[C@H]2C(=O)Nc2nc(Br)ccc2C)c2ccc(-c3cnc(C)nc3)cc12 [Compound 644, (2S,4R)-1-(2-(3-Acetyl-5-(2-methylpyrimidin-5-yl)-1H-indazol-1-yl)acetyl)-N-(6-bromo-3-methylpyridin-2-yl)-4-methylpyrrolidine-2-carboxamide] | < 1000 nM |
| CC(=O)c1nn(CC(=O)N2C[C@@](F)(CN(C)C)C[C@H]2C(=O)Nc2nc(Br)ccc2C)c2ccc(-c3cnc(C)nc3)cc12 [Compound 645, (2S,4S)-1-(2-(3-Acetyl-5-(2-methylpyrimidin-5-yl)-1H-indazol-1-yl)acetyl)-N-(6-bromo-3-methylpyridin-2-yl)-4-((dimethylamino)methyl)-4-fluoropyrrolidine-2-carboxamide] | < 1000 nM |
| CC(=O)c1nn(CC(=O)N2[C@@H](C)CC[C@H]2C(=O)Nc2nc(Br)ccc2C)c2ccc(-c3cnc(C)nc3)cc12 [Compound 646, (2S,5S)-1-(2-(3-Acetyl-5-(2-methylpyrimidin-5-yl)-1H-indazol-1-yl)acetyl)-N-(6-bromo-3-methylpyridin-2-yl)-5-methylpyrrolidine-2-carboxamide] | < 1000 nM |
| CC(=O)c1nn(CC(=O)N2[C@H](C(=O)Nc3nc(Br)ccc3C)C[C@@H]3C[C@@H]32)c2ccc(-c3cnc(C)nc3)cc12 [Compound 647, (1S,3S,5S)-2-(2-(3-Acetyl-5-(2-methylpyrimidin-5-yl)-1H-indazol-1-yl)acetyl)-N-(6-bromo-3-methylpyridin-2-yl)-2-azabicyclo[3.1.0]hexane-3-carboxamide] | < 1000 nM |
| CC(=O)c1nn(CC(=O)N2C[C@H](F)C[C@@H]2C(=O)Nc2nc(Br)ccc2C(=O)O)c2ccc(-c3cnc(C)nc3)cc12 [Compound 648, 2-((2R,4R)-1-(2-(3-Acetyl-5-(2-methylpyrimidin-5-yl)-1H-indazol-1-yl)acetyl)-4-fluoropyrrolidine-2-carboxamido)-6-bromonicotinic acid] | > 10000 nM |
| CC(=O)c1nn(CC(=O)N2C[C@H](F)C[C@H]2C(=O)Nc2cccc(Br)n2)c2ccc(-c3cnc(Cl)nc3)cc12 [Compound 651, (2S,4R)-1-(2-(3-Acetyl-5-(2-chloropyrimidin-5-yl)-1H-indazol-1-yl)acetyl)-N-(6-bromopyridin-2-yl)-4-fluoropyrrolidine-2-carboxamide] | > 10000 nM |
| CC(=O)c1nn(CC(=O)N2C[C@H]3C[C@H]3[C@H]2C(=O)Nc2nc(Br)ccc2C)c2c(C)cc(-c3cnc(C)nc3)cc12 [Compound 652, (1R,2S,5S)-3-(2-(3-Acetyl-7-methyl-5-(2-methylpyrimidin-5-yl)-1H-indazol-1-yl)acetyl)-N-(6-bromo-3-methylpyridin-2-yl)-3-azabicyclo[3.1.0]hexane-2-carboxamide] | < 1000 nM |
